Assay results taken from patent US20140274785A1, “BIOMARKERS” (priority 2013, published 2014).
Entries after “also recorded” stand apart in the source; their conditions may differ.

What was measured:
[1] = test system: SOD1-G93A TGN mice; assay: Onset of symptoms (stride length/gait analysis) and death in SOD1-G93A TGN mice, treatment started presymptomatic (7 weeks); type: in vivo, mouse; conditions: for Onset of motor deficits: vehicle 20% cyclodextran 88-100 days; for Mortality: vehicle 20% cyclodextran 105-112 days
Experimental: The one and two-drug treatments were started at an early (i.e., presymptomatic) stage of disease (7 weeks). SOD1-G93A TGN mice were treated 3 times a week with noscapine (0.2 mg/kg body weight) and/or MK-801 (12 mg/kg body weight/day). Mice received noscapine intraperitoneally and MK-801 in drinking water.
Female SOD-1 G93A TGN mice were obtained from Jackson laboratory (strain #2726). The controls were matched litter mates. Treatment groups were three per group. Noscapine was injected intraperitoneal in the thigh 3 times/week (0.2 mg/kg i.p.) and MK801 was administered continuously in drinking water (12 mg/kg/d). Gait analysis was done by the method of Wooley et al., Muscle Nerve 2005 32(1):43-50 and Carter et al. J. Neurosci., 19(8):3248-3257, hereby incorporated by reference in their entirety.
For clinical assessment endpoints scoring was selected as follows:
Clinical signs: Full mobility and no observable difference in behavior from age-matched controls (Gait or stride length analysis).
Clinical signs: Abnormal Gait or stride length analysis and hindlimb weakness: >40% reduction in stride length vs. age-matched littermates.
Clinical signs: noticeable and complete hind limb paralysis (which in this strain occurs more on one limb than the other) and inability to right themselves in 5 sec time window. This stage starts usually as the mice are failing the gait analysis test and enter the End stage. Therefore, Transgenic SOD1-G93A TGN mice are euthanized at the onset of noticeable and complete hindlimb paralysis and inability to right themselves in 5 sec time window.

[2] = test system: fast axonal transport of 2H-labeled cargo proteins; assay: MT-mediated fast axonal transport: CSF secretion kinetics and spinal cord retention of 2H-labeled cargo proteins in symptomatic SOD1G93A mice; type: in vivo, mouse
[3] = test system: hyperdynamic MTs; assay: Microtubule turnover in MPTP-injected PD mouse model; type: in vivo; conditions: treatment from 7 days after last MPTP injection for 10 days; n=4
Experimental: FIGS. 28A-28B show an illustration of altered microtubule (MT) turnover in two preclinical models of Parkinson's disease (PD). (A) The acute MPTP intoxication PD model (8 wk old C57b1/6 mice were injected four times with 20 mg/kg on 1 day, at 2 h interval) show hyperdynamic tau-associated and cold-stable (CS) MTs in striatum and substantia nigra at 3 and 7 days after the last (fourth) MPTP injection (n=4 per group, males aged 8 weeks, mean±SD; *P<0.001). (B) In vivo MT dynamics was measured in substantia nigra and striatum at presymptomatic (4 and 10 months) and symptomatic (15 months) disease stage in transgenic alpha-synucleinA53T PD mice (−/−/SNCAA53T). […]
FIGS. 29A-29C show normalized microtubule (MT) turnover correlate with reverse of symptoms in the MPTP-injected PD mouse model after treatment with the MTMA noscapine. […] Neuromuscular strength was measured using the grip strength test (B) and the grid hang test (C). Grip strength test measured the tension peak of pull (gram of force) by the forepaws and it was performed 1 day before (day 0), 1, 2, 3, 4, 5, 7 and 17 days after the last (fourth) MPTP injection (n=10, males per each time point). The hang test was performed 17 days after the last (fourth) MPTP-injection and percentage of success was recorded as maximum time hanging/300 sec×100 (n=10, males per each time point).

[4] = test system: MPTP-injected mice; assay: Neuromuscular strength (grip strength test, grid hang test) in MPTP-injected mice; type: in vivo, mouse; conditions: treatment from 7 days after last MPTP injection for 10 days; n=10
Experimental: Noscapine was administered at 7 days after the last MPTP-injection, treatment was for 10 days and a pulse of ^2H2O labeling was administered the last day of treatment (17 days after, fourth, MPTP injection). […] Neuromuscular strength was measured using the grip strength test (B) and the grid hang test (C). […] The hang test was performed 17 days after the last (fourth) MPTP-injection and percentage of success was recorded as maximum time hanging/300 sec×100 (n=10, males per each time point).

[5] = test system: transport of neuronal cargo proteins; assay: CSF secretion kinetics of 2H-labeled cargo proteins in symptomatic PD MPTP-injected mice; type: in vivo, mouse
Experimental: Noscapine was administered 7 days after the last MPTP injection, treatment was for 10 days, and a pulse of ^2H2O labeling was administered on the last day of treatment (17 days after the fourth and final MPTP injection

SMILES | Onset of motor deficits [1] [days] | Mortality [1] [days] | MT-mediated fast axonal transport rates of 2H-label neuregulin-1 and chromogranin-B containing synaptic vesicles ([2]; 3 weeks treatment, 100 mg/kg/d and 200 mg/kg/d, 13 weeks mice) | kinetic of 2H-alpha synuclein in CSF ([2]; symptomatic ALS SOD1G93A) | transport rates of 2H-Chr-B, 2H-NeuR-1 and 2H-sAPP in CSF ([2]; symptomatic ALS SOD1G93A, vs age-matched wild type, n=10 per time point) | hyperdynamic MTs [3] | symptoms (grip strength test, grid hang test) [4] | kinetics of 2H-NeuR-1 in CSF ([5]; symptomatic PD MPTP-injected mice) | kinetics of secretion of 2H-Chr-B, 2H-sAPP in CSF ([5]; treatment from 7 days after last MPTP injection for 10 days, n=10 per time point)
C[C@]12N[C@H](Cc3ccccc31)c1ccccc12 [MK-801, Dizocilipine] | 105 to 112 | 112 to 119 |  |  |  |  |  |  | 
COc1ccc2c(c1OC)C(=O)O[C@@H]2[C@H]1c2c(cc3c(c2OC)OCO3)CCN1C [Noscapine, noscapine] | 98 to 105 | 112 to 119 | normalized; also recorded: improves this delayed fast axonal transport | not adversely affected | normalized transport rates | reduced hyperdynamic MTs | reverses symptoms | not adversely affected | normalized the kinetics of secretion
